In patent US20230218519A1, “FLUID GEL COMPOSITIONS” (The University of Birmingham, priority 2020, published 2023):
Where two headings read alike, the source gives them in different places.

How the values were obtained:
[1] = tested on: primary ovine chondrocytes; experiment: Metabolic activity assay (PrestoBlue); type: cell-based
Description: All cell work was undertaken on primary ovine chondrocytes. Cells were first expanded, then seeded into wells 24 hrs prior to the application of the fluid gels. Once treatments were added, the cells were cultured for a further 3 days before testing for both metabolic activity and cell viability. In the presence of functionalised particles, suspension wells were used to promote adhesion to the gelled particles, away from the plastic. Metabolic activity assay was undertaken using a PrestoBlue™ assay kit (Invitrogen). In brief, cells were washed with Dulbecco's PBS, and 1 mL of PrestoBlue™ supplemented medium (10%) was added to each well and incubated for 4 hrs. 50 μL of supernatant from each well was transferred to one well of a 96 well plate and fluorescence was measured using a Tecan Spark (Tecan Group Ltd, UK) plate reader with excitation/emission wavelengths set at 550/620 nm.

[2] = Release assay from PEG-DA fluid gel (trans-well, UV/Vis); type: physicochemical; conditions: 3% v/v PEG-DA fluid gel (Example 5.3, 500 rpm), into PBS at 37° C., 5 hrs
Description: • Active amounts: […] • Standard concentrations of active in PBS were prepared. • Standards were pipetted into a quartz cuvette (1 mm pathlength). • UV/Vis spectroscopy was used to measure absorbance between 200 and 700 nm wavelength. • Curves were plotted and used to determine standard curves which were used to determine concentrations. • 0.5 ml PBS was added to the well of a 24 well plate. • The PBS was incubated at 37° C. to equilibrate. • 0.1 ml of the fluid gel containing active was placed in a trans-well insert. • The trans-well insert was placed into a well containing PBS. • After a given time period the trans-well insert was removed and placed in a fresh well of PBS. • The release media was then removed and analysed using […] spectroscopy. Concentrations were derived from the standard curves and cumulative release plotted as a function of time.

Compound | release of active agent from fluid gel [2] | further results
CC(C)(O)C(=O)c1ccc(OCCO)cc1 [Irgacure-2959, 1-[4-(2-Hydroxyethoxy)-phenyl]-2-hydroxy-2-methyl-1-propane-1-one] | – | metabolic activity, each constituent part of the PEG-DA formulation [1]: slight reduction in cell metabolism, although not statistical
dextran | able to release | –
CC(C)Cc1ccc(C(C)C(=O)O)cc1 (stereo not shown) [Ibuprofen, ibuprofen] | able to release | –
CC(C)(O)C(=O)c1ccccc1 [Omnirad-1173, 2-hydroxy-2-methyl-1-phenylpropanone] | – | metabolic activity, each constituent part of the PEG-DA formulation ([1]; 3 days culture, PEG-DA not cured, 3.5% & 5%): slight reduction in cell metabolism, although not statistical
